Laboratory results published in patent US12459957B2, “Therapeutic compounds and methods” (GENENTECH, INC., priority 2021, dated 2025).
Entries after “also recorded” stand apart in the source; their conditions may differ.

Key:
[1] = target: T1, phosphofructokinase-1 platelet type (PFKP) (Homo sapiens, UniProt Q01813); assay: PFKP activation; type: biochemical
T1 sequence (Q01813 1-784): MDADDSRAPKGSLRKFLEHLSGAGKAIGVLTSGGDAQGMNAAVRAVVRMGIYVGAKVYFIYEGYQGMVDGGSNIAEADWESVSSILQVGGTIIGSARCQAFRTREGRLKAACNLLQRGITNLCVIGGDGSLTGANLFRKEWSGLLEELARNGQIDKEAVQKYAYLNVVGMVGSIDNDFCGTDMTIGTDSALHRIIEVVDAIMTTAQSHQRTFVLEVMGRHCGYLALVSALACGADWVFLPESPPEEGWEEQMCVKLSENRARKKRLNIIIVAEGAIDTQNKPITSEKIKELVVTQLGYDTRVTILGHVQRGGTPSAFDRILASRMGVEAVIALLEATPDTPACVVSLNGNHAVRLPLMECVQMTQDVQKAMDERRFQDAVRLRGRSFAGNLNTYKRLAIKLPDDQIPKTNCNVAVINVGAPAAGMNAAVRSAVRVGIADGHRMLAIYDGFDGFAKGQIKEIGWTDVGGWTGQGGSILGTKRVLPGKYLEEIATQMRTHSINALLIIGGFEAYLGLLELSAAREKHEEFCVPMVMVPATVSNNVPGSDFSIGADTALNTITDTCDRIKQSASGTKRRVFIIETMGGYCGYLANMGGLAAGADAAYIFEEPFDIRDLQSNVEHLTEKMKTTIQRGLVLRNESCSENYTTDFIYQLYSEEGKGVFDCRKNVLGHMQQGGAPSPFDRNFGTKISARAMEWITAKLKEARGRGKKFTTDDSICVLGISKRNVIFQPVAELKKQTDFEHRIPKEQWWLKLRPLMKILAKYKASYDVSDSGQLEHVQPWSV

[2] = tested on: NOX2-dependent oxidative burst in neutrophils; assay: NOX2-dependent oxidative burst in neutrophils; type: cell-based
[3] = tested on: neutrophils (PMA-stimulated ROS); assay: ROS detection assay (ROS-Glo, H2O2); type: cell-based; conditions: Neutrophil; human neutrophils, 30 min preincubation, 50 nM PMA for 30 min
Method: ROS were measured in neutrophils using the ROS-Glo bioluminescent assay (Promega) for the direct detection of H2O2. Neutrophils were isolated from fresh human blood using a biphasic Histopaque gradient as described here. Cells (100 uL per well) were plated in 96-well plates at a density of 200,000 cells/mL in high glucose DMEM medium. Cells were preincubated with either DMSO vehicle or compounds (10-point dilution curve starting at 2 uM with 3-fold serial dilution) for 30 min, and then stimulated with 50 nM PMA for 30 min. Luminescence, after the addition of H2O2 substrate solution for 20 min, and then ROS-Glo detection solution for 20 min, was recorded on a luminescence plate reader. The fifty percent inhibitory concentration (IC50) was determined with GraphPad Prism by plotting the assay output (RLU) versus the logarithm of the compound concentration using a non-linear sigmoid with variable slope algorithm with the default curve-fitting parameters in the Prism software.

[4] = target: T2, phosphofructokinase-1 liver type (PFKL) (Homo sapiens, UniProt P17858); assay: PFKL activation; type: biochemical
T2 sequence (P17858 1-780): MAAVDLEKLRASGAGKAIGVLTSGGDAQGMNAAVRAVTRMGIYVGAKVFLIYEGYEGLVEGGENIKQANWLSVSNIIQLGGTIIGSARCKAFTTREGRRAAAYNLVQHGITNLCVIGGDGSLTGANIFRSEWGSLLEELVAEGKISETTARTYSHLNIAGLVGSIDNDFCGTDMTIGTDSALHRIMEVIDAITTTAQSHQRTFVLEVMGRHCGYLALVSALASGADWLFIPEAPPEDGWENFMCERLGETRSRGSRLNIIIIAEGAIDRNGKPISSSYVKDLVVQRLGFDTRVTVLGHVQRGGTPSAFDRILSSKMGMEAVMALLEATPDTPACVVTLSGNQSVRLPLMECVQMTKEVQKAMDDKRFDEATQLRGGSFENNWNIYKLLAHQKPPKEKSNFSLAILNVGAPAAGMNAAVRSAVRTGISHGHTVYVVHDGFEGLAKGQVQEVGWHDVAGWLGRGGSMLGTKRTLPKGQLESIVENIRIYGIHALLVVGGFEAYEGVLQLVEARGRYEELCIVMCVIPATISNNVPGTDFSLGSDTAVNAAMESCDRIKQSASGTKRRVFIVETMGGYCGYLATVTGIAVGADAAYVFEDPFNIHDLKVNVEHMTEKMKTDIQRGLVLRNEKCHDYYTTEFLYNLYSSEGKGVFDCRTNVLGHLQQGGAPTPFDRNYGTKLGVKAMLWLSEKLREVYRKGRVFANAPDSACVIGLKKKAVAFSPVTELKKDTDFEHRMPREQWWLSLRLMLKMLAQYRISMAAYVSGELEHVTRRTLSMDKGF

[5] = tested on: neutrophils (PMA-stimulated NETosis); assay: Quantification of NETosis using SYTOX Green; type: cell-based, human; conditions: for NETosis (qualitative): polymorphonuclear leukocytes, FIG. 1
Text: Semi-automated analysis of both phase and fluorescence images of SYTOX Green-stained neutrophils used a MATLAB algorithm. Total cells were counted by scoring phase standard deviation and radial symmetry. NETosis was classified in cells by measuring the DNA area in the fluorescence image and comparing with a select internal training set for each experiment. Unstimulated cells and PMA-stimulated, pyocyanin-inhibited cells served as negative controls. PMA-stimulated cells served as a positive control. NET-forming cells are presented as a percentage of total cells.

[6] = target: T3, phosphofructokinase-1 muscle type (PFKM) (Homo sapiens, UniProt P08237); assay: PFKM activation; type: biochemical
T3 sequence (P08237 1-780): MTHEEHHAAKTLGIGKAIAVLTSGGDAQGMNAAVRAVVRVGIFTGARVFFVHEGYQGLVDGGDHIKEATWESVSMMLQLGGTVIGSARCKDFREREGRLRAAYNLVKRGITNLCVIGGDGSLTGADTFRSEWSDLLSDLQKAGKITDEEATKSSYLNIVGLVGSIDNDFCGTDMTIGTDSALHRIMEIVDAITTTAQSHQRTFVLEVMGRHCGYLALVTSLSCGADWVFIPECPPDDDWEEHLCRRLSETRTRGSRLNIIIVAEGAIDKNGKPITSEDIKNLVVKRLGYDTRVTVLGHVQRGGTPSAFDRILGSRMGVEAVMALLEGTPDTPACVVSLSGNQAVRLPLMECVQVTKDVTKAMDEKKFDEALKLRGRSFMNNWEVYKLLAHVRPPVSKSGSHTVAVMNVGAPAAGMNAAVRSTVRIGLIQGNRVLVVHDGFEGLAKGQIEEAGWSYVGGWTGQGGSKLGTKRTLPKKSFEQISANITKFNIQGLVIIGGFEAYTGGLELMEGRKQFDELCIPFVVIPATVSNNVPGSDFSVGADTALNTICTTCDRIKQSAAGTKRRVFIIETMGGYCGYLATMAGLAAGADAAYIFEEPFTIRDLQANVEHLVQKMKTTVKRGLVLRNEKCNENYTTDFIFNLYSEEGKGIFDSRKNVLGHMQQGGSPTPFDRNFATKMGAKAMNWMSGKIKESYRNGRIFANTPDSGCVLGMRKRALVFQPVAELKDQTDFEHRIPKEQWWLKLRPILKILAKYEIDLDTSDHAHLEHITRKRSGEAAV

[7] = target: T4, recombinant GSDMD / caspase-4 (Homo sapiens, UniProt P57764); assay: Cleavage of recombinant GSDMD by caspase-4; type: biochemical
T4 sequence (P57764 1-484): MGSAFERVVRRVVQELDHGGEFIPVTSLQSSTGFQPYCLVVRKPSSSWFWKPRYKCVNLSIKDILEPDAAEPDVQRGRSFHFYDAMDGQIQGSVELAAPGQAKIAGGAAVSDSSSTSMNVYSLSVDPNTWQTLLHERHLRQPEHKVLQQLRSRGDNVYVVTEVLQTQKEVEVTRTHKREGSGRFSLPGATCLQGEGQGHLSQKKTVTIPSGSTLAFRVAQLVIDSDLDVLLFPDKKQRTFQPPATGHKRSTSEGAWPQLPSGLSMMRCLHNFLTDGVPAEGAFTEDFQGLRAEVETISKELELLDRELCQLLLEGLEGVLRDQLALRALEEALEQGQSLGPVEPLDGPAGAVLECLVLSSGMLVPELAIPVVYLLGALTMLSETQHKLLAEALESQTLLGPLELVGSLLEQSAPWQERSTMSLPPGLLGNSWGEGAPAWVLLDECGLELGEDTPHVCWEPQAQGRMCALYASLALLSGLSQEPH
Method: (§1) FIG. 1. […] LDH (A) or IL-1β (B) released from primary human monocytes. Bars show the mean±s.e.m. of monocytes from 3 donors. (C) Western blots of monocytes at 1 h after electroporation with LPS. FL, full length GSDMD. NT, N-terminal fragment of GSDMD. Results representative of 3 independent experiments. (D) Coomassie blue staining of recombinant GSDMD. Results representative of 3 independent experiments. (E) TR-FRET assay measuring Europium-labeled biotin released from liposomes exposed to caspase-4 and GSDMD. Symbols indicate the mean±s.d. of 3 independent experiments. (F-G) Percentage of polymorphonuclear leukocytes (PMNs) undergoing NETosis induced by PMA (F) or the stimuli indicated (G). Data are the mean±s.d. of cells from 3 donors. (H) ROS production by PMNs. Bars show the mean±s.e.m. of PMNs from 3 donors. P-values (Two-way ANOVA, means compared to medium alone) are shown if P<0.05. (I) Percentage of PMNs undergoing PMA-induced NETosis. The x-axis indicates when NA-11 was added relative to the addition of PMA (t=0). Bars show the mean±s.e.m. of PMNs from 3 donors. P-values (one-way ANOVA, means compared to medium alone) are shown if P<0.05.
(§2) LDC7559 was reported to block the pore-forming activity of GSDMD (Sollberger et al., 2018). The ability to inhibit GSDMD-dependent pyroptosis in primary human monocytes and human monocytic THP-1 cells was tested (FIG. 1A-C).

[8] = target: T5, GSDMD pore-forming fragment (Homo sapiens, UniProt P57764); assay: TR-FRET liposome permeabilization by GSDMD pore-forming fragment; type: biochemical; conditions: liposomes exposed to caspase-4 and GSDMD
T5 sequence (P57764 1-275 limits assumed): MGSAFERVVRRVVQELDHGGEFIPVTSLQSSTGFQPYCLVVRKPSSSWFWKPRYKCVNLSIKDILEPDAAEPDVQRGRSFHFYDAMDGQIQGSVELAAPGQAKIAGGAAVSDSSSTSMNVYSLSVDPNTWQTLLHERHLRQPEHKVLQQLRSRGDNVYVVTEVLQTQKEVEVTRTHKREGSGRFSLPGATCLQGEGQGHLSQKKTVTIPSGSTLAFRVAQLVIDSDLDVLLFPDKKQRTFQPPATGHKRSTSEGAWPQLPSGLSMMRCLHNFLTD
Method: as §1, §2

[9] = tested on: GSDMD-dependent release of interleukin-1β (IL-1β) from monocytes; assay: GSDMD-dependent release of IL-1β from monocytes; type: cell-based, human; conditions: in response to nigericin or poly(dA-dT)
Method: as §1, §2

GSDMD = target: T6, GSDMD (Homo sapiens, UniProt P57764); assay: Western blot of LPS-induced cleavage of GSDMD in monocytes; type: cell-based; conditions: monocytes after electroporation with LPS
T6 construct: Western blots of monocytes at 1 h after electroporation with LPS; endogenous in cells; host or cells: primary human monocytes
T6 sequence (P57764 1-484): T4 sequence (P57764 1-484)
Method: as §1, §2

[10] = tested on: GSDMD-dependent pyroptosis in primary human monocytes and human monocytic THP-1 cells; assay: GSDMD-dependent pyroptosis, LDH release; type: cell-based; conditions: induced by nigericin, cytoplasmic LPS or cytoplasmic poly(dA-dT)
Method: as §1, §2

| agonism of PFKP [1] | IC50 [3] [nM] | agonism/activation of PFKL [4] | agonism of PFKM [6] | cleavage of recombinant GSDMD by caspase-4 [7] | liposome permeabilization by GSDMD pore-forming fragment [8] | LPS-induced cleavage of GSDMD (Western blotting) (GSDMD) | Compound | NOX2-dependent oxidative burst [2] | IC50 ([5]; Homo sapiens, Neutrophil, NETosis, SYTOX Green-stained neutrophils, PMA-stimulated) [nM] | 5 uM (% NETosis) ([5]; compound at 5 uM, NET-forming cells as percentage of total cells, vehicle 79.66, untreated 14.54) [%] | NETosis (qualitative) [5] | GSDMD-dependent release of IL-1β [9] | GSDMD-dependent pyroptosis (LDH release) [10] |
| --- | --- | --- | --- | --- | --- | --- | --- | --- | --- | --- | --- | --- | --- |
| failed to agonize | 26 | activating | failed to agonize | – | – | – | CC(=O)Nc1ccc2c(c1)OCc1cc(-c3ccccc3C#CCCCO)nn1C2 [Example 6, N-(2-(2-(5-hydroxypent-1-yn-1-yl)phenyl)-4H,10H-benzo[f]pyrazolo[5,1-c][1,4]oxazepin-7-yl)acetamide] | inhibit | 4 ± 0.5 | 58.67 | inhibit NETosis | – | – |
| – | – | activating; also recorded: agonize | – | did not inhibit | Nor did it prevent | did not prevent | COc1ccccc1-c1cc2n(n1)Cc1ccc(NC(C)=O)cc1OC2 [LDC7559, N-(2-(2-methoxyphenyl)-4H,10H-benzo[f]pyrazolo[5,1-c][1,4]oxazepin-7-yl)acetamide] | inhibit; also recorded: suppress | – | – | inhibit NETosis | occurred normally | did not alter |
